Test results from patent US12077534B2, “Aza-heterobicyclic inhibitors of MAT2A and methods of use for treating cancer” (Les Laboratoires Servier SAS, priority 2018, dated 2024).

How the values were obtained:
HCT116 MTAP+/+ = assay: Inhibition of cellular proliferation (Cell Titer Glo), HCT116 MTAP+/+; assay type: cell-based; conditions: Homo sapiens, HCT-116, 96 h, 4 days, read-out: 4 Day Relative Growth Inhibition (MTAP +/+)
Procedure, shortened: (§1)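 Isogenic HCT116 MTAP+/+ and MTAP−/− cells treated 24 h after plating with 10-point 3-fold dilutions, then grown 4 days at 37 °C/5% CO2. ATP content read by Cell Titer Glo luminescence, blank-subtracted and normalized to 0.2% DMSO control, plotted as percent proliferation change versus log molar concentration.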

[1] = test system: MAT2A activity (SAM) in HCT116 cells with deleted MTAP gene; assay: Cellular assay of target engagement (SAM) by LC-MS/MS; assay type: cell-based; conditions: Homo sapiens, HCT-116; HCT116 MTAP −/−, 72 hrs; read-out: Cell 72 h SAM Inhibition (MTAP −/−)
Procedure, shortened: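 HCT116 MTAP-deleted cells treated with 10-point 3-fold DMSO serial dilutions of compound for 72 hrs at 37° C. Cells lysed in cold 80% methanol/acetic acid extraction buffer with d3-SAM internal standard; SAM quantified by LC-MS/MS (MRM m/z 399.2→250.1).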

HCT116 MTAP−/− = assay: Inhibition of cellular proliferation (Cell Titer Glo), HCT116 MTAP-/-; assay type: cell-based; conditions: Homo sapiens, HCT-116, 96 h, 4 days, read-out: 4 Day Relative Growth Inhibition (MTAP −/−)
Procedure, shortened: as §1

MAT2A homodimer = biological target: T1, MAT2A homodimer (Homo sapiens, UniProt P31153); assay: MAT2A biochemical assay (phosphate release, PiColorLock Gold); conditions: recombinant MAT2A homodimer, 60 min pre-incubation, 25° C.; read-out: Enzyme Inhibition
T1 construct: inferred from Ni sepharose purification and imidazole elution; made in house; host or cells: SF9 insect cells, recombinant baculovirus (Bac to Bac, pFASTBAC1)
Procedure, shortened: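 Baculovirus/Sf9-expressed, Ni-purified MAT2A homodimer (4 µg/mL in pH 8.0 Tris/KCl/MgCl2 buffer) preincubated 60 min at 25 °C with compound (2% DMSO final). Substrate mix of 500 µM ATP and 400 µM L-methionine added; 60 min at 25 °C; released phosphate quantified colorimetrically against a phosphate standard curve.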

T1 sequence (P31153 whole entry): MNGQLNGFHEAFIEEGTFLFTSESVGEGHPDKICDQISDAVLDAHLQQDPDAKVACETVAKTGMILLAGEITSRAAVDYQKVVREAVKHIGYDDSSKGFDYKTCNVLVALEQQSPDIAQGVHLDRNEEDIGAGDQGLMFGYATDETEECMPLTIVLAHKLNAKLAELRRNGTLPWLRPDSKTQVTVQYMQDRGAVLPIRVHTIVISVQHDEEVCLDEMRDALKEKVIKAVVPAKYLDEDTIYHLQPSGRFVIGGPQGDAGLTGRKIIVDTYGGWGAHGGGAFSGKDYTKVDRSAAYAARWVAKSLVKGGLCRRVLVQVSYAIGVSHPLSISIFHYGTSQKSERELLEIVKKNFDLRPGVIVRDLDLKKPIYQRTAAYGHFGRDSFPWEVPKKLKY

Row | Compound | IC50 (HCT116 MTAP+/+) [nM] | IC50 [1] [nM] | IC50 (HCT116 MTAP−/−) [nM] | IC50 (MAT2A homodimer) [nM]
1 | CCOc1ccc2nn(-c3ccc4nn(C)cc4c3)c(=O)c(-c3ccc(Br)cc3)c2n1 [Example 198, 4-(4-bromophenyl)-6-ethoxy-2-(2-methyl-2H-indazol-5-yl)pyrido[3,2-c]pyridazin-3(2H)-one] | ≥ 1000 | < 100 | < 100 | < 100
2 | CC(C)Oc1ccc2nn(-c3ccc4nn(C)cc4c3)c(=O)c(-c3ccc(Br)cc3)c2n1 [Example 199, 4-(4-bromophenyl)-6-isopropoxy-2-(2-methyl-2H-indazol-5-yl)pyrido[3,2-c]pyridazin-3(2H)-one] | ≥ 1000 | < 100 | < 100 | < 100
3 | Cn1cc2cc(-n3nc4ccc(OCC(F)F)nc4c(-c4ccc(Br)cc4)c3=O)ccc2n1 [Example 200, 4-(4-bromophenyl)-6-(2,2-difluoroethoxy)-2-(2-methyl-2H-indazol-5-yl)pyrido[3,2-c]pyridazin-3(2H)-one] | ≥ 1000 | < 100 | < 100 | < 100
4 | O=c1c(-c2ccc(Br)cc2)c2nc(OCC(F)F)ccc2nn1-c1ccc2ncsc2c1 [Example 201, 2-(benzo[d]thiazol-6-yl)-4-(4-bromophenyl)-6-(2,2-difluoroethoxy)pyrido[3,2-c]pyridazin-3(2H)-one] | ≥ 1000 | < 100 | < 100 | < 100
5 | CC(C)Oc1ccc2nn(-c3ccc4ncsc4c3)c(=O)c(-c3ccc(Br)cc3)c2n1 [Example 202, 2-(benzo[d]thiazol-6-yl)-4-(4-bromophenyl)-6-isopropoxypyrido[3,2-c]pyridazin-3(2H)-one] | ≥ 1000 | < 100 | < 100 | < 100
6 | CCCc1ccc2nn(-c3ccc4nn(C)cc4c3)c(=O)c(-c3ccc(OC(F)F)cc3)c2n1 [Example 205, 4-(4-(difluoromethoxy)phenyl)-2-(2-methyl-2H-indazol-5-yl)-6-propylpyrido[3,2-c]pyridazin-3(2H)-one] | ≥ 1000 | < 100 | < 100 | < 100
7 | Cn1cc2cc(-n3nc4ccc(OCC(F)F)nc4c(C4CCCCC4)c3=O)ccc2n1 [Example 206, 4-cyclohexyl-6-(2,2-difluoroethoxy)-2-(2-methyl-2H-indazol-5-yl)pyrido[3,2-c]pyridazin-3(2H)-one] | ≥ 1000 | 100 to 1000 | 100 to 1000 | < 100
8 | CCc1c2cc(-n3nc4ccc(OCC(F)F)nc4c(-c4ccc(OC(F)F)cc4)c3=O)ccc2nn1C [Example 208, 6-(2,2-difluoroethoxy)-4-(4-(difluoromethoxy)phenyl)-2-(3-ethyl-2-methyl-2H-indazol-5-yl)pyrido[3,2-c]pyridazin-3(2H)-one] | 100 to 1000 | < 100 | < 100 | < 100
9 | C#Cc1c(=O)n(-c2ccc3nn(C)cc3c2)nc2ccc(OCC(F)F)nc12 [Example 214, 6-(2,2-difluoroethoxy)-4-ethynyl-2-(2-methyl-2H-indazol-5-yl)pyrido[3,2-c]pyridazin-3(2H)-one] | ≥ 1000 | > 1000 | ≥ 1000 | 100 to 1000
10 | Cn1cc2cc(-n3nc4ccc(OCC(F)F)nc4c(C#Cc4cc[nH]n4)c3=O)ccc2n1 [Example 215, 4-((1H-pyrazol-3-yl)ethynyl)-6-(2,2-difluoroethoxy)-2-(2-methyl-2H-indazol-5-yl)pyrido[3,2-c]pyridazin-3(2H)-one] | ≥ 1000 | > 1000 | 100 to 1000 | < 100

Other lines, results leading:

Row | IC50 (HCT116 MTAP+/+) [nM] | IC50 [1] [nM] | IC50 (HCT116 MTAP−/−) [nM] | IC50 (MAT2A homodimer) [nM] | Compound
11 | ≥ 1000 | 100 to 1000 | < 100 | < 100 | Cn1cc2cc(-n3nc4cc(F)c(OCC(F)F)nc4c(-c4ccc(OC(F)F)cc4)c3=O)ccc2n1 [Example 194, 6-(2,2-difluoroethoxy)-4-(4-(difluoromethoxy)phenyl)-7-fluoro-2-(2-methyl-2H-indazol-5-yl)pyrido[3,2-c]pyridazin-3(2H)-one]
12 | ≥ 1000 | < 100 | ≥ 1000 | < 100 | CCOc1nc2c(-c3ccc(OC(F)F)cc3)c(=O)n(-c3ccc4nn(C)cc4c3)nc2cc1F [Example 195]
13 | ≥ 1000 | < 100 | < 100 | < 100 | CCNc1nc2c(-c3ccc(OC(F)F)cc3)c(=O)n(-c3ccc4nn(C)cc4c3)nc2cc1F [Example 196]
14 | ≥ 1000 | < 100 | < 100 | < 100 | Cn1cc2cc(-n3nc4cc(F)c(NCC(F)(F)F)nc4c(-c4ccc(OC(F)F)cc4)c3=O)ccc2n1 [Example 197]
15 | 100 to 1000 | < 100 | < 100 | < 100 | CN(C)c1c2cc(-n3nc4ccc(OCC(F)F)nc4c(-c4ccc(OC(F)F)cc4)c3=O)ccc2nn1C [Example 203, 6-(2,2-difluoroethoxy)-4-(4-(difluoromethoxy)phenyl)-2-(3-(dimethylamino)-2-methyl-2H-indazol-5-yl)pyrido[3,2-c]pyridazin-3(2H)-one]
16 | ≥ 1000 | < 100 | 100 to 1000 | < 100 | Cn1cc2cc(-n3nc4ccc(OCC(F)F)nc4c(-c4ccc(O)cc4)c3=O)ccc2n1 [Example 207, 6-(2,2-difluoroethoxy)-4-(4-hydroxyphenyl)-2-(2-methyl-2H-indazol-5-yl)pyrido[3,2-c]pyridazin-3(2H)-one]
17 | ≥ 1000 | < 100 | < 100 | < 100 | Cn1cc2cc(-n3nc4c(CO)cc(OCC(F)F)nc4c(-c4ccc(OC(F)F)cc4)c3=O)ccc2n1 [Example 209, 6-(2,2-difluoroethoxy)-4-(4-(difluoromethoxy)phenyl)-8-(hydroxymethyl)-2-(2-methyl-2H-indazol-5-yl)pyrido[3,2-c]pyridazin-3(2H)-one]
18 | ≥ 1000 | < 100 | 100 to 1000 | < 100 | Cn1cc2cc(-n3nc4c(C(F)F)cc(OCC(F)F)nc4c(-c4ccc(OC(F)F)cc4)c3=O)ccc2n1 [Example 210, 6-(2,2-difluoroethoxy)-4-(4-(difluoromethoxy)phenyl)-8-(difluoromethyl)-2-(2-methyl-2H-indazol-5-yl)pyrido[3,2-c]pyridazin-3(2H)-one]
19 | ≥ 1000 | 100 to 1000 | 100 to 1000 | < 100 | CN(C)Cc1cc(OCC(F)F)nc2c(-c3ccc(OC(F)F)cc3)c(=O)n(-c3ccc4nn(C)cc4c3)nc12 [Example 211, 6-(2,2-difluoroethoxy)-4-(4-(difluoromethoxy)phenyl)-8-((dimethylamino)methyl)-2-(2-methyl-2H-indazol-5-yl)pyrido[3,2-c]pyridazin-3(2H)-one]
20 | 100 to 1000 | < 100 | < 100 | < 100 | Cn1cc2cc(-n3nc4c(N)cc(OCC(F)F)nc4c(-c4ccc(OC(F)F)cc4)c3=O)ccc2n1 [Example 212, 8-amino-6-(2,2-difluoroethoxy)-4-(4-(difluoromethoxy)phenyl)-2-(2-methyl-2H-indazol-5-yl)pyrido[3,2-c]pyridazin-3(2H)-one]
21 | 100 to 1000 | < 100 | < 100 | < 100 | CCOc1ccc2nn(-c3ccc4nn(C)cc4c3)c(=O)c(-c3ccc(OC(F)F)cc3)c2n1 [Example 217, 4-(4-(difluoromethoxy)phenyl)-6-ethoxy-2-(2-methyl-2H-indazol-5-yl)pyrido[3,2-c]pyridazin-3(2H)-one]
